This is an account of results in patent publication US20220232834A1, “PSEUDOMONAS CHLORORAPHIS SPECIES AND ITS USE IN THE CONTROL OF DISEASES CAUSED BY BACTERIA AND FUNGI” (T3 BIOSCIENCE, LLC, priority 2021, published 2022).

≈ marks a conversion by molar mass, not a printed value. Read-outs that look alike come from different tables or passages of the source. Marks after values point to notes of the source that are not given here.

Experiment [1] relates to Pseudomonas syringae. pv. tomato PT30. As to the kind of experiment: microbe, parasite or virus in culture. Format: cell-based.
Experiment [2] deals with Botrytis cinerea CA17. Kind of experiment: microbe, parasite or virus in culture. Format: cell-based.
Experiment [3] concerns Fusarium oxysporum. The conditions noted are these: cited from earlier work.
For experiment [4], the system named is Vibrio anguillarum C312. The conditions noted are these: Ref 5; producer P. aeruginosa PA31x; cited from earlier work.
Experiment [5] concerns Alternaria alternata, Phytophthora sp., Fusarium solani, F. oxysporum. The following applies: Ref 12; producer P. chlororaphis MCC2693; cited from earlier work.
Experiment [6] deals with Gaeumannomyces graminis var. tritici. The following applies: Ref 6; producer P. fluorescens 2-79; cited from earlier work.
Experiment [7] concerns Xanthomonas euvesicatoria 75-3. As to the kind of experiment: microbe, parasite or virus in culture. Format: cell-based. The following applies: 753.
The subject of experiment [8] is Seiridium cardinale. The following applies: Ref 4; producer P. chlororaphis subsp. aureofaciens M71; cited from earlier work.
Experiment [9] concerns Phytophthora infestans 88069. As to the kind of experiment: microbe, parasite or virus in culture. In kind it is cell-based.
The subject of experiment [10] is Clavibacter michiganensis subsp. michiganensis 382. Kind of experiment: MIC value study of 1214-CHY4 metabolites. Format: cell-based. The following applies: Clavibacter michiganensis.
Experiment [11] concerns Botrytis cinerea. The following applies: cited from earlier work.
Experiment [12] deals with Ralstonia solanacearum K60. As to the kind of experiment: microbe, parasite or virus in culture. Format: cell-based.
The test system of experiment [13] is Phytophthora infestans. The conditions noted are these: cited from earlier work.
Experiment [14] concerns Venturia inaequalis VI19-032. As to the kind of experiment: microbe, parasite or virus in culture. In kind it is cell-based. The conditions noted are these: VI19032.
Experiment [15] has as its system Ralstonia solanacearum K60. As to the kind of experiment: microbe, parasite or virus in culture. In kind it is cell-based. The following applies: K60, read-out: Diameter of Growth Inhibition Zone.
Experiment [16] concerns Erwinia amylovora CA11. As to the kind of experiment: microbe, parasite or virus in culture. Format: cell-based. The conditions noted are these: CA11, read-out: Diameter of Growth Inhibition Zone.
In experiment [17] the test system is Pectobacterium atrosepticum 942. Kind of experiment: microbe, parasite or virus in culture. Format: cell-based. The following applies: Pectobacterium atrosepticum, 942, read-out: Diameter of Growth Inhibition Zone.
In experiment [18] the test system is Pseudomonas syringae. pv. lachrymans 1188-1. As to the kind of experiment: microbe, parasite or virus in culture. In kind it is cell-based. The following applies: read-out: Diameter of Growth Inhibition Zone.
Experiment [19] relates to Erwinia amylovora DM1. Kind of experiment: microbe, parasite or virus in culture. Format: cell-based. The following applies: DM1, read-out: Diameter of Growth Inhibition Zone.
In experiment [20] the test system is Xanthomonas axonopodis pv. citri N40-SO5. As to the kind of experiment: plate diffusion assay. Format: cell-based. The conditions noted are these: read-out: Diameter of Growth Inhibition Zone.
Experiment [21] relates to Xanthomonas arboricola pv. juglandis 417. As to the kind of experiment: microbe, parasite or virus in culture. In kind it is cell-based. The following applies: read-out: Diameter of Growth Inhibition Zone.
Experiment [22] relates to Pseudomonas syringae. pv. tomato PT30. As to the kind of experiment: microbe, parasite or virus in culture. Format: cell-based. The following applies: read-out: Diameter of Growth Inhibition Zone.
Experiment [23] relates to Erwinia amylovora 110. As to the kind of experiment: microbe, parasite or virus in culture. The following applies: Erwinia amylovora, 110, read-out: Diameter of Growth Inhibition Zone. Format: cell-based.
Experiment [24] concerns Erwinia amylovora 88. Kind of experiment: microbe, parasite or virus in culture. The conditions noted are these: Erwinia amylovora, 88, read-out: Diameter of Growth Inhibition Zone. In kind it is cell-based.
The test system of experiment [25] is Dickeya dadantii 3937. Kind of experiment: microbe, parasite or virus in culture. Format: cell-based. The following applies: Dickeya dadantii, 3937, read-out: Diameter of Growth Inhibition Zone.
Experiment [26] deals with Pectobacterium carotovorum subsp brasillensis 944. As to the kind of experiment: microbe, parasite or virus in culture. In kind it is cell-based. The conditions noted are these: read-out: Diameter of Growth Inhibition Zone.
Experiment [27] has as its system Erwinia amylovora 1189. As to the kind of experiment: microbe, parasite or virus in culture. In kind it is cell-based. The conditions noted are these: Erwinia amylovora, 1189, read-out: Diameter of Growth Inhibition Zone.
Experiment [28] has as its system Pectobacterium carotovorum subsp. carotovorum wpp14 945. Kind of experiment: microbe, parasite or virus in culture. Format: cell-based. The following applies: read-out: Diameter of Growth Inhibition Zone.
Experiment [29] deals with Xanthomonas arboricola pv. juglandis 219. As to the kind of experiment: microbe, parasite or virus in culture. Format: cell-based. The following applies: read-out: Diameter of Growth Inhibition Zone.
Experiment [30] has as its system Xanthomonas axonopodis pv. citri-Miami XC2002-00010. Kind of experiment: plate diffusion assay. Format: cell-based. The conditions noted are these: read-out: Diameter of Growth Inhibition Zone.
Experiment [31] has as its system Xanthomonas campestris pv. vesicatoria XV-16. Kind of experiment: microbe, parasite or virus in culture. The following applies: read-out: Diameter of Growth Inhibition Zone. In kind it is cell-based.
For experiment [32], the system named is Pectobacterium parmentieri UPP163 936. As to the kind of experiment: microbe, parasite or virus in culture. In kind it is cell-based. The following applies: UPP163936, read-out: Diameter of Growth Inhibition Zone.
Experiment [33] has as its system Ralstonia solanacearum Pss4. Kind of experiment: microbe, parasite or virus in culture. Format: cell-based. The following applies: PSS4, read-out: Diameter of Growth Inhibition Zone.
The subject of experiment [34] is Pseudomonas savastanoi pv. savastanoi. As to the kind of experiment: microbe, parasite or virus in culture. In kind it is cell-based. The following applies: read-out: Diameter of Growth Inhibition Zone.
Experiment [35] deals with Pseudomonas syringae. pv syringae 7046. As to the kind of experiment: microbe, parasite or virus in culture. The conditions noted are these: read-out: Diameter of Growth Inhibition Zone. In kind it is cell-based.
In experiment [36] the test system is Xanthomonas campestris pv. pruni. Kind of experiment: microbe, parasite or virus in culture. The following applies: read-out: Diameter of Growth Inhibition Zone. Format: cell-based.
Experiment [37] relates to Clavibacter michiganensis subsp. michiganensis Cmm 0317. As to the kind of experiment: plate diffusion assay. Format: cell-based. The following applies: 200 μg/mL, read-out: Diameter of Growth Inhibition Zone.
The subject of experiment [38] is Clavibacter michiganensis subsp. michiganensis NCPPB382. As to the kind of experiment: plate diffusion assay. Format: cell-based. The conditions noted are these: 200 μg/mL, read-out: Diameter of Growth Inhibition Zone.
In experiment [39] the test system is Clavibacter michiganensis subsp. michiganensis Cmm 0690. As to the kind of experiment: plate diffusion assay. The conditions noted are these: 200 μg/mL, read-out: Diameter of Growth Inhibition Zone. Format: cell-based.

On to `O=C(O)c1cccc2nc3ccccc3nc12` (single isomer, unassigned) [Peak 4, phenazine-1-carboxylic acid], for which the MIC in experiment [1] stood at 100 µg/mL (≈ 446 µM); in experiment [2] it was 62.5 µg/mL (≈ 279 µM); in experiment [7], 100 µg/mL (≈ 446 µM); in [9], 1.56 µg/mL (≈ 6.96 µM); in [10], 100 µg/mL; in [12] (Ralstonia solanacearum, K60), 6.25 µg/mL (≈ 27.9 µM). Moreover, the MIC in experiment [12] (agar dilution method) was 6.25^b μg/mL; in experiment [14] it was 31.3 µg/mL (≈ 140 µM). In addition, the “Active Against” value in [3] (Ref 7, producer P. fluorescens strain Psd) is “Fusarium oxysporum”; in experiment [4], “Vibrio anguillarum C312”; in [6], “Gaeumannomyces graminis var. tritici”; in [8], “Seiridium cardinale”; in [11] (Ref 1, producer P. aeruginosa LV Strain), “Botrytis cinerea”; in [13] (Ref 2, producer P. fluorescens LBUM636), “Phytophthora infestans”. Further, in [13] (Ref 3, producer P. fluorescens LBUM223), the “Active Against” value was “Phytophthora infestans”. Further, the “reported to be effective against” value in experiment [3] (Upadhyay and Srivastava, 2011) is “effective”; in experiment [11] (Upadhyay and Srivastava, 2011), “effective”. In addition, in [5], the “Active Against (order)” value was “Alternaria alternata > Phytophthora sp. >”.
As usually defined, the zone of inhibition is the extent of the growth-free halo in a diffusion test. `[H]/N=C(/N)N[C@H]1[C@H](O)[C@@H](O)[C@H](O[C@@H]2O[C@@H](C)[C@](O)(C=O)[C@H]2O[C@@H]2O[C@@H](CO)[C@H](O)[C@@H](O)[C@@H]2NC)[C@@H](N/C(N)=N\[H])[C@@H]1O` [Streptomycin]: the MIC in [1] is 3.13 µg/mL (≈ 5.38 µM); in experiment [7], 50 µg/mL (≈ 86 µM); in [10], 12.5 µg/mL; in experiment [12] (Ralstonia solanacearum, K60) it was 25 µg/mL (≈ 43 µM). For the same compound, the zone of inhibition at 200 µg/mL is 3 mm in experiment [15]; 0 mm in experiment [16]; 0 mm in experiment [17]; 6 mm in [18]; 0 mm in experiment [19]; 22 mm in experiment [20]. Also, the zone of inhibition at 200 µg/mL was 10 mm in experiment [21]; 6 mm in [22]; 5 mm in experiment [23]; 0 mm in [24]; 5 mm in [25]; 0 mm in experiment [26]. Moreover, the zone of inhibition at 200 µg/mL in [27] came to 5 mm; in experiment [28], 0 mm; in [29], 0 mm; in experiment [30], 21 mm; in [31], 10 mm; in experiment [32], 5 mm. The zone of inhibition at 200 µg/mL in [33] was 3 mm; in experiment [34], 6 mm; in [35] it was 5 mm; in experiment [36] it was 0 mm.
With `CN[C@H](CC(C)C)C(=O)N[C@H]1C(=O)N[C@@H](CC(N)=O)C(=O)N[C@H]2C(=O)N[C@H]3C(=O)N[C@H](C(=O)N[C@H](C(=O)O)c4cc(O)cc(O)c4-c4cc3ccc4O)[C@H](O)c3ccc(c(Cl)c3)Oc3cc2cc(c3O[C@@H]2O[C@H](CO)[C@@H](O)[C@H](O)[C@H]2O[C@H]2C[C@](C)(N)[C@H](O)[C@H](C)O2)Oc2ccc(cc2Cl)[C@H]1O` [Vancomycin, reference compound], the MIC in experiment [1] is 100 µg/mL (≈ 69 µM); in experiment [7] it was 50 µg/mL (≈ 34.5 µM); in experiment [10], 0.39 µg/mL; in [12] (Ralstonia solanacearum, K60), 100 µg/mL (≈ 69 µM). Besides, the figures for the zone of inhibition at 200 µg/mL in experiment [37], in experiment [38] and in [39] were 11 mm, 13 mm and 12 mm, respectively.
